Here are results for 7 compounds from BindingDB's records for doi:10.1111/j.1747-0285.2008.00719.x (The Burnham Institute For Medical Research, 2008).

SMILES strings stand for the structures.

In this assay the target is T1, Phosducin-like protein 3 (Homo sapiens, UniProt Q9H2J4).
T1 sequence (Q9H2J4 whole entry): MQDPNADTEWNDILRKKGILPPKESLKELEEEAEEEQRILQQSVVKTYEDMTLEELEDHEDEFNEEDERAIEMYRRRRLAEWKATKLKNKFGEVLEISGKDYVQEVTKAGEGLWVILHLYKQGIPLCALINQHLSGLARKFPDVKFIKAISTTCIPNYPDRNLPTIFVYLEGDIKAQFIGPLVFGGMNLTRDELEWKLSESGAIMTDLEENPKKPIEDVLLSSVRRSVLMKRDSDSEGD
Nature of the assay: NMR Screening Assay. The conditions noted are these: pH 7.5; 27 °C. From the text:
NMR-based screen of potential binders by using 1D Aliphatic 1H NMR experiment to investigate the potential role of the c-VIAF as a possible drug target viral infections validation and functional studies.
`CCOC(=O)Cn1cnc2sc3c(c2c1=O)CCC3` [2-(1-keto-7,8-dihydro-6H-cyclopenta[2,3]thieno[2,4-d]pyrimidin-2-yl)acetic acid ethyl ester]: binding was put at a Kd of 227 µM.

On to `CCOC(=O)Cn1cnc2sc3c(c2c1=O)CCCC3` [BI-86-E6], for which the Kd – broadly, the free concentration of one partner at which half of the binding sites on the other are occupied at equilibrium, for simple one-to-one binding – was determined as 16.5 µM.

For `CCOC(=O)C(CC)n1cnc2sc3c(c2c1=O)CCCC3` (configuration not stated) [BI-86-E8], the Kd is > 1000 µM.

With `CC(C)COC(=O)Cn1cnc2sc3c(c2c1=O)CCCC3` [BI-86-E11], the Kd is > 1000 µM.

`CCOC(=O)C(C)n1cnc2sc3c(c2c1=O)CCCC3` (configuration not stated) [BI-86-E12] displayed a Kd of 76 µM.

In the case of `O=C(Cn1cnc2sc3c(c2c1=O)CCCC3)OCc1ccccc1` [BI-86-F2], the Kd is > 1000 µM.

As to `O=c1[nH]nnc2sc3c(c12)CCCC3` [BI-86-F3], the Kd is > 1000 µM.
